pIC50: −log10 of the molar value.

Assay [1] concerns the target T1, Bruton's tyrosine kinase (BTK) (Homo sapiens, UniProt Q06187).
T1 construct: full-length recombinant BTK
Description: LC-MS/MS of tryptic peptide […]-487 and in-gel fluorescence; ADP-Glo IC50; immunoprecipitation from Ramos cells. The class given is biochemical. (ADP-Glo first removes unused ATP, then detects ADP through luciferase.)

Assay [2] concerns the target T1, Bruton's tyrosine kinase (BTK). Description: in-gel fluorescence under denaturing conditions (covalent labelling); ADP-Glo IC50. The class given is biochemical.

T1 sequence (Q06187 2-659): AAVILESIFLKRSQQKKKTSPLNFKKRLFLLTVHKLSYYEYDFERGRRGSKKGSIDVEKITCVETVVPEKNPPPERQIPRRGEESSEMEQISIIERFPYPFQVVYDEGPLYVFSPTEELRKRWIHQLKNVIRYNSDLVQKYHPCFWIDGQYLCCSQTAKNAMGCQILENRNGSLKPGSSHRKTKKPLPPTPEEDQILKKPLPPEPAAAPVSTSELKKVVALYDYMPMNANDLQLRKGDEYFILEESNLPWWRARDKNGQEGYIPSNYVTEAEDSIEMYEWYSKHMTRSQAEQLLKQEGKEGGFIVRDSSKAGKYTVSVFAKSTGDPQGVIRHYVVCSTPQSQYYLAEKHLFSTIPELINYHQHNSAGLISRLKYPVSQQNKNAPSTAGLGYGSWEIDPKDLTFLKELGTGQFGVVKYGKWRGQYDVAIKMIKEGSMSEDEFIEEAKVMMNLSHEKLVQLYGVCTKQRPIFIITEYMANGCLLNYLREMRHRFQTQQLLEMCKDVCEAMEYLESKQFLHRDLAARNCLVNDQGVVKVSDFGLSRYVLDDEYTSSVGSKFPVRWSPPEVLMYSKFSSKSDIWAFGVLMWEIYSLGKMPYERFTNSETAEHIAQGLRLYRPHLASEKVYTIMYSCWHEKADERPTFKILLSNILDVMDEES

With `C=C(CN1CCC(CNc2ncnc(N)c2-c2ccc(Oc3ccccc3)cc2)CC1)C(=O)N1CCC(NC(=O)CCC2=[N+]3C(=Cc4c(C)cc(C)n4[B-]3(F)F)C=C2)CC1` [Evo-2], the pIC50 – broadly, the IC50 on a negative log10 scale, so that one unit is a factor of ten – in assay [1] was less than 5.00.

In turn, `C=C(CN1CCC(CNc2ncnc(N)c2-c2ccc(Oc3ccccc3)cc2)CC1)C(=O)NCCNC(=O)CCC1=[N+]2C(=Cc3c(C)cc(C)n3[B-]2(F)F)C=C1` [Evo-1] had a pIC50 in assay [2] of 5.12.

The values are drawn from article PMC11867108, “Design and application of a fluorescent probe for imaging of endogenous Bruton's tyrosine kinase with preserved enzymatic activity” (RSC Chemical Biology, 2025).
